In patent US20250120399A1, “METHODS AND COMPOSITIONS FOR ALTERING METABOLITES IN VITIS SPP. AND PREVENTING PESTS AND PATHOGENS” (Impello Biosciences, Inc., priority 2022, published 2025):

Key:
[1] = tested on: Kyoho grapes (Vitis vinifera×Vitis labrusca); assay: Cluster weight, grape weight, diameter, grapes per cluster, pH and Brix in Kyoho grapes (Example 6); type: in vivo; conditions: for Average Brix (FRUIT, BRIX) / Average diameter (FRUIT, DIAMET) / Average fruit per cluster (CLUSTR, COUNT) / Individual grape weight (FRUIT, WEIGHT) / pH (FRUIT, PH) / Average Weight of cluster: applications ABCD; for Average Brix (FRUIT, BRIX) / Average diameter (FRUIT, DIAMET) / Average fruit per cluster (CLUSTR, COUNT) / Individual grape weight (FRUIT, WEIGHT): rated Aug. 17, 2022; for pH (FRUIT, PH): rated Aug. 17, 2022, scale 0-14
Method: (§1) Field trials were conducted in California 2022 (a dry year) to investigate the efficacy of MDJ in preventing Sour Rot caused by Aspergillus carbonarius (also known as summer bunch rot, abbreviated ASPECA in Table 10). Kyoho grapes (Vitis vinifera×Vitis labrusca) were used in this trial. Three vines were used per plot. The plots were arranged in a randomized complete block design with six replicates (plots) per treatment (24 plots total). The plots were sprayed four times (ABCD) at a rate of 500 gal/AC.
Treatments consisted of MDJ at 32 oz and 48 oz/A. A treatment of Regalia® at 1.5 qt/100 gal and Stargus® at 2 qt/100 gal was included for comparative purposes.

[2] = tested on: Black seedless grapes (Vitis labrusca); assay: Fruit Brix and titratable acid, black seedless grapes (Example 5); type: in vivo; conditions: for Fruit BRIX / Titratable Acid, fruit: ABCDE; for Fruit BRIX: Aug. 11, 2022; for Titratable Acid, fruit: Sep. 8, 2022
Method: as §1, with “7). Black seedless” for “10). Kyoho”, “(Vitis” for “(Vitis vinifera×Vitis”, “Four” for “Three”, “treatment.” for “treatment (24 plots total).”, “five” for “four”, “(ABCDE)” for “(ABCD)”
(§2) Treatments consisted of MDJ at 32 oz and 48 oz/A. A treatment of Regalia® at 1.5 qt/100 gal and Stargus® at 2 qt/100 gal was included for comparative purposes. Application D occurred at 5-10% veraison. Application E occurred at 40% veraison.
(§3) A randomly selected sample of approximately twenty wine grapes was used to evaluate the Brix and titratable acid. Another randomly selected sample (>500 g) was shipped to ETS Laboratories (Paso Robles, CA) for a red grape panel analysis (catechin, quercetin glycosides, tannin, polymeric anthocyanins, total anthocyanins, catechin/tannin index, and polymeric anthocyanins/tannin index). […] Total anthocyanins increased over 17% (449.1 in untreated controls compared to 529.3 in the group treated with 48 oz/A MDJ). An increase in quercetin glycosides, tannin, and polymeric anthocyanins, was also observed in MDJ treated plants (Table 8), as well as titratable acid (Table 9).

Botrytis cinerea = assay: Botrytis bunch rot percent disease incidence and severity, 2022 field trial (Example 4); type: in vivo
Method: Similar to Example 3 above, additional field trials were conducted in 2022 to investigate the efficacy of MDJ in preventing bunch rot (Botrytis cinerea). The objective of this trial was to evaluate the fungicidal efficacy of MDJ at 32 oz and 48 oz/A against Botrytis cinerea on wine grapes. Serenade® Opti at 16 oz/A was included for comparative purposes. Pro 90 a NIS with anti-foaming agent was included with each treatment at 2 oz/100 gal. The trial was conducted on 21-year-old Carignane grapes (Vitis vinifera).
The first of three foliar applications was initiated June 22nd (prior to veraison) followed a month later (July 21st when fruit was at early (5 to 10%) veraison, then at 40% veraison on August 1st. Applications were made using a backpack mistblower based on a spray volume of 80 gallons per acre. As a separate control of Erysiphe necator (powdery mildew), a maintenance fungicide program of two applications in June of fenarimol (4 oz/A) followed by two applications of fenarimol+Quintec (6 oz/A) at 2 week intervals was applied.
Temperatures throughout the trial ranged from highs of 89 to 104 degrees and lows of 50 to 66 degrees F. All treatments provided good crop safety with no phytotoxicity observed. Assessments were based on visual observation of the percent disease incidence and severity at each evaluation.

Malbec wine grape juice = assay: Key metabolites in wine grape juice by HPLC with UV detection (Example 2); type: in vivo, Vitis vinifera
Method: 200 grapes were randomly selected from the MDJ treated group and control group of the study described above in Example 1. Samples were pooled from each group and juice was prepared for winemaking used standard practices. The juice was analyzed for several key metabolites important for wine making (Table 6). All samples were run on Agilent HPLC with UV detection for the compounds listed below. Between 50 μL-100 μL was injected into the machine per sample.

[3] = tested on: Black seedless grapes (Vitis labrusca); assay: Red grape panel analysis (ETS Laboratories), black seedless grapes (Example 5); type: in vivo; conditions: for Fruit catechin: ABCDE, Aug. 18, 2022
Method: as §1, with “7). Black seedless” for “10). Kyoho”, “(Vitis” for “(Vitis vinifera×Vitis”, “Four” for “Three”, “treatment.” for “treatment (24 plots total).”, “five” for “four”, “(ABCDE)” for “(ABCD)”
as §2, §3

[4] = Malbec MDJ treated (2.5 mM, Example 1 trial), pooled 200 grapes
[5] = fruit, Aug. 18, 2022, 32 oz/a, applications ABCDE
[6] = fruit, Aug. 18, 2022, 48 oz/a, applications ABCDE

In the case of `CCCCCC1C(=O)CCC1CC(=O)OC` (stereo not drawn) [MDJ, methyl dihydrojasmonate], the “Average Brix (FRUIT, BRIX)” value ([1]; 32 oz/a) is reported as 20.73%, the “Average diameter (FRUIT, DIAMET)” value ([1]; 32 oz/a) is reported as 23.778 mm and the “Average fruit per cluster (CLUSTR, COUNT)” value ([1]; 32 oz/a) is reported as 32.5 number. For the same compound, the “Individual grape weight (FRUIT, WEIGHT)” value ([1]; 32 oz/a) was 7.277 g, the “pH (FRUIT, PH)” value ([1]; 32 oz/a) was 4.0 and the “Average Brix (FRUIT, BRIX)” value ([1]; 48 oz/a) was 20.17%. For the same compound, the “Average diameter (FRUIT, DIAMET)” value ([1]; 48 oz/a) was 23.917 mm, the “Average fruit per cluster (CLUSTR, COUNT)” value ([1]; 48 oz/a) was 34.3 number and the “Individual grape weight (FRUIT, WEIGHT)” value ([1]; 48 oz/a) was 7.232 g. For the same compound, the “pH (FRUIT, PH)” value ([1]; 48 oz/a) was 4.0, the “Average Weight of cluster” value ([1]; Aug. 17, 2022, 32 oz/a) was 234.287a g and the “Average Weight of cluster” value ([1]; Aug. 17, 2022, 48 oz/a) was 246.350a g. The “Diameter of individual grapes” value ([1]; MDJ treatment) was “did not significantly affect”, the “Weight of individual grapes” value ([1]; MDJ treatment) was “did not significantly affect” and the “pH of individual grapes” value ([1]; MDJ treatment) was “did not significantly affect”. The “Grapes per cluster vs standard control (Regalia and Stargus)” value ([1]; both rates of MDJ (32 and 48 oz/A)) was “significantly more grapes per cluster”, the “Brix level compared to other treatments” value ([1]; higher rate of MDJ (48 oz/A)) was “statistically reduced the Brix level” and the “Fruit BRIX” value ([2]; 32 oz/a) was 19.080— %. The “Titratable Acid, fruit” value ([2]; 32 oz/a) was 5.83— g/L, the “Fruit BRIX” value ([2]; 48 oz/a) was 19.560— % and the “Titratable Acid, fruit” value ([2]; 48 oz/a) was 6.67— g/L. The “Fruit Brix vs untreated” value ([2]; MDJ treated plants) was “increase”, the “Titratable acid vs untreated” value ([2]; MDJ treated plants) was “increase” and the “Control of Botrytis incidence and severity, higher vs lower rate” value (Botrytis cinerea; Carignane wine grapes, higher rate of MDJ (48 oz/A)) was “numerically better control of Botrytis incidence and severity”. The “B. cinerea suppression (disease incidence) vs untreated grapes” value (Botrytis cinerea; MDJ Elicitor at both rates (32 and 48 oz/A), 26DAC, 20 bunches per plot) was “significantly better B. cinerea suppression”, the “Control of Botrytis, higher vs lower rate” value (Botrytis cinerea; higher rate of MDJ (48 oz/A), 7 and 14 days after the third treatment (7 and 14DAC)) was “significantly better control” and the “Control of Botrytis incidence compared to the Serenade Opti standard” value (Botrytis cinerea; low rate of MDJ (32 oz/A), 26DAC) was “significantly better control of Botrytis incidence”. For the same compound, the “Catechin in wine grape juice” value (Malbec wine grape juice; [4]) was 28 mg/L, the “Polymeric anthocyanins in wine grape juice” value (Malbec wine grape juice; [4]) was 24 mg/L and the “Quercetin glycosides in wine grape juice” value (Malbec wine grape juice; [4]) was 23 mg/L. For the same compound, the “Tannin in wine grape juice” value (Malbec wine grape juice; [4]) was 393 mg/L, the “Total anthocyanins in wine grape juice” value (Malbec wine grape juice; [4]) was 1697 mg/L and the “Increase of total anthocyanins vs control” value (Malbec wine grape juice; Malbec wine grape juice, MDJ treatment group) was “approximately 8%”. The “Color of grape wine juice vs control group” value (Malbec wine grape juice; Malbec, MDJ treatment group, FIG. 2) was “richer, darker red color”, the Fruit catechin ([3]; 32 oz/a) was 0.8b mg/L and the “Increase of total anthocyanins vs untreated controls” value ([3]; 48 oz/A MDJ) was “over 17%”. For the same compound, the total anthocyanins ([3]; 48 oz/A MDJ) was 529.3, the Fruit catechin ([3]; 48 oz/a) was 2.6a mg/L and the Catechin vs untreated ([3]; MDJ treated plants) was “increase”. The “Polymeric anthocyanins vs untreated” value ([3]; MDJ treated plants) was “increase”, the “Quercetin glycosides vs untreated” value ([3]; MDJ treated plants) was “increase” and the Tannin vs untreated ([3]; MDJ treated plants) was “increase”. For the same compound, the catechin/tannin index [3, 5] was 0.0—, the polymeric anthocyanins [3, 5] was 13.5— mg/L and the polymeric anthocyanins/tannin index [3, 5] was 0.0312—. For the same compound, the quercetin glycosides [3, 5] was 89.8— mg/L, the tannin [3, 5] was 432.0— mg/L and the total anthocyanins [3, 5] was 388.3— mg/L. For the same compound, the catechin/tannin index [3, 6] was 0.0—, the polymeric anthocyanins [3, 6] was 14.7— mg/L and the polymeric anthocyanins/tannin index [3, 6] was 0.0304—. For the same compound, the quercetin glycosides [3, 6] was 113.2— mg/L, the tannin [3, 6] was 483.2— mg/L and the total anthocyanins [3, 6] was 529.3— mg/L.
